Reference: US6387933B1, “Insecticidal compositions and insecticidal methods” (Sumitomo Chemical Company, Limited, priority 2001, dated 2002)

Experiments:
silverleaf whiteflies [1] = test: Test Example 1: spray on cabbage seedlings infested with silverleaf whiteflies; type: in vivo; conditions: 50 ppm; adults and larvae on cabbage seedling, 8 days after spray
Procedure: (§1) Cabbage seedlings planted in 3 ounces plastic cup were placed in a net cage containing many living silverleaf whiteflies for 24 hours, so that many silverleaf whiteflies became parasitic on the cabbage seedlings. A designated amount of each of acetamiprid on the market (commercial name, Mospilan water-soluble powder: produced by Nippon Soda), pyriproxyfen on the market (commercial name, Lano emulsifiable concentrate: produced by Sumitomo Chemical) and a mixture of acetamiprid and pyriproxyfen on the market were diluted with water, and then sprayed over the cabbage seedlings with spray gun. The number of silverleaf whiteflies (i.e., the total number of adults and larvae) surviving on the cabbage seedlings was examined just before and after 8 days from the treatment.

silverleaf whiteflies [2] = test: Test Example 2: spray on cabbage seedlings infested with silverleaf whiteflies; type: in vivo; conditions: 8 days after spray
Procedure: as §1

| Compound | Number of surviving insects/pot after 8 days (silverleaf whiteflies [1]) [insects/pot] | Number of surviving insects/pot after 8 days (silverleaf whiteflies [2]; 5 ppm) [insects/pot] | Number of surviving insects/pot after 8 days (silverleaf whiteflies [2]; 10 ppm) [insects/pot] | Number of surviving insects/pot after 8 days (silverleaf whiteflies [2]; 50 ppm) [insects/pot] |
| --- | --- | --- | --- | --- |
| C/C(=N\C#N)N(C)Cc1ccc(Cl)nc1 [acetamiprid, (E)-N^1-[(6-chloro-3-pyridyl)methyl]-N^2-cyano-N^1-methylacetamidine] | 69 | 41 | 16 | 24 |
| CC(COc1ccc(Oc2ccccc2)cc1)Oc1ccccn1 (centres unmarked) [pyriproxyfen, 4-phenoxyphenyl 2-(2-pyridyloxy)propyl ether] | 21 | 41 | 114 | 69 |
